Read-outs that look alike come from different tables or passages of the source.
What was measured:
ALK2 (aa 147-end) = ALK2 (aa 147-end) (Homo sapiens (Human), UniProt Q04771); experiment: ALK2 HTRF Assay; type: biochemical
Method: The enzymatic assays were conducted in white 384-well polystyrene plates in a final volume of 8 μL. The inhibitors were serially diluted in DMSO and added to the plate wells prior to addition of the other reaction components. The assays were carried out at 25° C. in the assay buffer (50 mM HEPES, pH 7.1, 10% Glycerol, 0.01% Brij50, 10 mM MgCl2, 1 mM EGTA, 5 mM DTT, and 0.01% BSA), containing 50 nM LANCE Ultra ULight™-DNA Topoisomerase 2-alpha peptide (Perkin Elmer TRF0130), and 3 uM, 100 uM or 1 mM ATP (as specified). […] The reaction was read on a PHERAstar FS plate reader (BMG Labtech). IC50 determination was performed by fitting percent control activity versus the log of the inhibitor concentration using the IDBS XLFit and GraphPad Prism 5.0 software.

ALK2 = ALK2 (Homo sapiens (Human), UniProt Q04771); experiment: ALK2 Cellular Assay (phospho SMAD1 HTRF, BMP-7 stimulated HeLa cells); type: cell-based; settings: HeLa cells, 200 ng/ml BMP-7, Phospho SMAD1 (S463/S465) HTRF; read-out: ALK2 Cellular Assay PSMAD
Sequence of ALK2 (Q04771 21-509): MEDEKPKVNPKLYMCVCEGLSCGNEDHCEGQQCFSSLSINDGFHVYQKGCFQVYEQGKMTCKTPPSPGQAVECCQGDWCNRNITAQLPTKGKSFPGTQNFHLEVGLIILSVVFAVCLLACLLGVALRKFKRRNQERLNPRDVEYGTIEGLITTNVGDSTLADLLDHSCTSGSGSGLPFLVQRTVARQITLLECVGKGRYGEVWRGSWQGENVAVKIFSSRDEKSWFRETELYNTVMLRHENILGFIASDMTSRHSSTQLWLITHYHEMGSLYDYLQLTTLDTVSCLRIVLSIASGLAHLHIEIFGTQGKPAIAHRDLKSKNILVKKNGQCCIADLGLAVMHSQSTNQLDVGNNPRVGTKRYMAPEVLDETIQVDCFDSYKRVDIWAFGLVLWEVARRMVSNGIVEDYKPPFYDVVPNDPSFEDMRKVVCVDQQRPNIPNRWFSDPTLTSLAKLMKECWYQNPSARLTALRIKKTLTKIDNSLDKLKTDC
Method: HeLa cells were cultured in MEM media with 10% FBS. […] HeLa cells were plated in 96 well flat bottomed plate at 50,000 cells per well and incubated overnight. Next day, media was removed and 50 μL of fresh complete media was added. 5 μL compound was added to cells (3 μM final concentration at highest) and incubated for 60 min at 37° C. 200 ng/ml BMP-7 was added and incubated for 30 min at 37° C. After incubation, the media was removed, washed 2×PBS, and proceeded with HTRF kit according to Cisbio HTRF kit instructions for measuring the Phospho SMAD1 (S463/S465). Finally, both the donor and acceptor were added into 384 well plates and incubated at room temperature overnight and the HTRF signal was measured via Pherastar the next day.

FGFR2 (P) = FGFR2 (P) (Homo sapiens (Human), UniProt P21802); experiment: FGFR Enzymatic Assay, FGFR2 phosphorylated; settings: phosphorylated enzyme, ATP near or below Km
Sequence of FGFR2 (P) (P21802 22-821): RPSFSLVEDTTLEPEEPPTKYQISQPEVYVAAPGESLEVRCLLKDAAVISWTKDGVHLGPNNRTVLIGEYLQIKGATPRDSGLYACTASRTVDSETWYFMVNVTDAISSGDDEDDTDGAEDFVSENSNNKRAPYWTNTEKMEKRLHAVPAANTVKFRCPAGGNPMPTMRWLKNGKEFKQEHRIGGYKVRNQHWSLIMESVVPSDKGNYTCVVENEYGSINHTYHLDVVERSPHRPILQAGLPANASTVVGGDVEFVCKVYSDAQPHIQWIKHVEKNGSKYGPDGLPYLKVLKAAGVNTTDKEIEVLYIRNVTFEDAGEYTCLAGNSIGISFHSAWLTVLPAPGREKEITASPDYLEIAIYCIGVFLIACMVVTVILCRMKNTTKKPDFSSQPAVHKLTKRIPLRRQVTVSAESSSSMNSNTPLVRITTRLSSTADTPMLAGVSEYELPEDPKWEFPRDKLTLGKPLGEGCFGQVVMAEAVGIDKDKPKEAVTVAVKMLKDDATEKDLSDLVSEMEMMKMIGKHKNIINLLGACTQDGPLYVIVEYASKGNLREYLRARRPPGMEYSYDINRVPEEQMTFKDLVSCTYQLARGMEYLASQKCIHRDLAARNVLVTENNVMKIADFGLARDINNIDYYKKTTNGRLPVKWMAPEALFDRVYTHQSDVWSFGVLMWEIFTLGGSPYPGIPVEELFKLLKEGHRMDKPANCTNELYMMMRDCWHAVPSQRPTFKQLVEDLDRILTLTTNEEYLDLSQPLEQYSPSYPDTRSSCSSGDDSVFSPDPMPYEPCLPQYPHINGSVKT

FGFR3 (UP) = FGFR3 (UP) (Homo sapiens (Human), UniProt P22607); experiment: FGFR Enzymatic Assay, FGFR3 un-phosphorylated
Sequence of FGFR3 (UP) (P22607 23-806): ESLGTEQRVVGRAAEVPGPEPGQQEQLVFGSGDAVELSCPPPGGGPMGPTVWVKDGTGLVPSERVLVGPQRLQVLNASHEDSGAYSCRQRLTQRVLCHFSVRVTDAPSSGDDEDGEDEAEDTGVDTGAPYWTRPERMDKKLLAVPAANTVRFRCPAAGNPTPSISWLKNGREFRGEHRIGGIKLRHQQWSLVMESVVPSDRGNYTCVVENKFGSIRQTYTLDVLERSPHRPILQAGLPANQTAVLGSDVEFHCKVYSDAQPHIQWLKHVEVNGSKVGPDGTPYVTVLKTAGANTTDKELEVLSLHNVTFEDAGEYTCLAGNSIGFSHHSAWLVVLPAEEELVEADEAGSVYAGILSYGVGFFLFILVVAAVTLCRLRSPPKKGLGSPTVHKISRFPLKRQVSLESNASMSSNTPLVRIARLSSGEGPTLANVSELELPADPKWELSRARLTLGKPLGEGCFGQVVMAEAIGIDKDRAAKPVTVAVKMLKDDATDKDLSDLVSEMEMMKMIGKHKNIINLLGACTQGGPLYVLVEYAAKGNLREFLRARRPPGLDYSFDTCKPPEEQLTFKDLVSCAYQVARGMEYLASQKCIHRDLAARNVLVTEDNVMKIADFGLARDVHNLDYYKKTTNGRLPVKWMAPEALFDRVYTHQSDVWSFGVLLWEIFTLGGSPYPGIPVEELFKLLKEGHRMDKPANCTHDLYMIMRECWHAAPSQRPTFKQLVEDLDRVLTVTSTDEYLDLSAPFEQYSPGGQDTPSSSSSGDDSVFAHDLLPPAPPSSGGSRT
Method: The inhibitor potency of the exemplified compounds was determined in an enzyme discontinuous assay that measures peptide phosphorylation using FRET measurements to detect product formation. Inhibitors were serially diluted in DMSO and a volume of 0.2 μL was transferred to the wells of a 384-well plate. For the isoforms of FGFR (−1, −2, −3 wild-type and mutant isoforms, −4) including phosphorylated (P) and un-phosphorylated (UP) proteins, a 5 μL/well volume of enzyme diluted in assay buffer (50 mM HEPES, 10 mM MgCl2, 1 mM EGTA, 0.01% Tween-20, 5 mM DTT, pH 7.5) was added to the plate and pre-incubated with inhibitor for 5 to 15 minutes at ambient temperature. Appropriate controls (enzyme blank and enzyme with no inhibitor) were included on the plate. The reaction was initiated by the addition of a 5 μL/well volume containing both biotinylated [sequence] […] The plate was allowed to equilibrate for −10 minutes at ambient temperature before scanning on a PheraStar plate reader (BMG Labtech) instrument.
Either GraphPad prism or XLfit was used to analyze the data. The IC50 values were derived by fitting the data to a four parameter logistic equation producing a sigmoidal dose-response curve with a variable Hill coefficient. Prism equation: Y=Bottom+(Top−Bottom)/(1+10^((LogIC50−X)*Hill slope)); XLfit equation: Y=(A+((B−A)/(1+((X/C)^D)))) where X is the logarithm of inhibitor concentration and Y is the response.

FGFR1 (UP) = FGFR1 (UP) (Homo sapiens (Human), UniProt P11362); experiment: FGFR Enzymatic Assay, FGFR1 un-phosphorylated
Sequence of FGFR1 (UP) (P11362 22-822): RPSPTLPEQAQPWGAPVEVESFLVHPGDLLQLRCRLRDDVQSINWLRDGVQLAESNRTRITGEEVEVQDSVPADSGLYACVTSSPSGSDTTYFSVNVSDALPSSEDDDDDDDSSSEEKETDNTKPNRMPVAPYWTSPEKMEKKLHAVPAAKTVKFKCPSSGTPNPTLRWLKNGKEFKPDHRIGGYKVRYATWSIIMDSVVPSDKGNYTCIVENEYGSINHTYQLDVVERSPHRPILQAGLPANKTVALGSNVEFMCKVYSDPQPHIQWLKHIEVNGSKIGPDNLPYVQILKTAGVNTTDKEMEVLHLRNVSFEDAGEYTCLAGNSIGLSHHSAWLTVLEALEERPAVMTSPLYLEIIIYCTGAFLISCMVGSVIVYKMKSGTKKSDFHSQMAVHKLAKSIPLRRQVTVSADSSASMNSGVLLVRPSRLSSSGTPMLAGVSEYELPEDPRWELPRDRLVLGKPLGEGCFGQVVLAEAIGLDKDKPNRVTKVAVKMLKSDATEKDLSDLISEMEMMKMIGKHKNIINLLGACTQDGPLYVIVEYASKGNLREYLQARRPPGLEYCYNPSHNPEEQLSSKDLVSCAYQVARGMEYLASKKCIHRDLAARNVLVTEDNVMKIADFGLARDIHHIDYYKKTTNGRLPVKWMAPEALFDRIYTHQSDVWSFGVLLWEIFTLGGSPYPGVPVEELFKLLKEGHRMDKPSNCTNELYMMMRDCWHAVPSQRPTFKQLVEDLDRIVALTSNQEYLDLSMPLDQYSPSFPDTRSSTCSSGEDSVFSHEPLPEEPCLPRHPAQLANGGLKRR

[1] = read-out: ALK2 3 μM IC50, 3 uM ATP
[2] = read-out: ALK2 100 μM IC50, 100 uM ATP
[3] = read-out: ALK2 1 mM IC50, 1 mM ATP
[4] = read-out: FGFR3 (UP) IC50, un-phosphorylated enzyme, ATP near or below Km
[5] = read-out: FGFR1 (UP) IC50, un-phosphorylated enzyme, ATP near or below Km

Sequence of ALK2 (aa 147-end) (Q04771 147-509): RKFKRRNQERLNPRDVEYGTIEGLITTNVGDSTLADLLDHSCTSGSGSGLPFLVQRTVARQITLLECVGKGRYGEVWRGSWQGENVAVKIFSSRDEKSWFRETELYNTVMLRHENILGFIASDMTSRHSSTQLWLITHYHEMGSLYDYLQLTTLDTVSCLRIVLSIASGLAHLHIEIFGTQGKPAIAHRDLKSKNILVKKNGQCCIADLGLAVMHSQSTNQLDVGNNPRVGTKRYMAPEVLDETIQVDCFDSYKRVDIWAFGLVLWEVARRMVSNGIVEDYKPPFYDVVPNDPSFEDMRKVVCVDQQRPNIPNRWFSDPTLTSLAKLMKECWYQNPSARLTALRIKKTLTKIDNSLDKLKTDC

| IC50 (ALK2 (aa 147-end); [1]) | IC50 (ALK2) | IC50 (ALK2 (aa 147-end); ALK2 1 mM IC50, 1 mM ATP) | IC50 (FGFR2 (P); FGFR2 (P) IC50 (nM)) | IC50 (ALK2 (aa 147-end); ALK2 100 μM IC50, 100 uM ATP) | Structure (SMILES) | IC50 (FGFR2 (P); read-out: FGFR2 (P) IC50) | further results |
| --- | --- | --- | --- | --- | --- | --- | --- |
| < 100 nM | 100 to 500 nM | – | – | – | C[C@@H]1CN(c2ccc(-c3n[nH]c4cnc(N5[C@H](C)CN(C(=O)N(C)C)C[C@@H]5C)nc34)cn2)CCN1 [Example 8, (3R,5S)—N,N,3,5-tetramethyl-4-(3-(6-((R)-3-methylpiperazin-1-yl)pyridin-3-yl)-1H-pyrazolo[4,3-d]pyrimidin-5-yl)piperazine-1-carboxamide] | – | IC50 (ALK2 (aa 147-end); [2]): < 100 nM; IC50 (ALK2 (aa 147-end); [3]): < 100 nM |
| < 100 nM | 100 to 500 nM | – | – | – | CCN1CCN(c2ccc(-c3n[nH]c4cnc(N5[C@H](C)CN(C(=O)OC)C[C@@H]5C)nc34)cc2C)CC1 [Example 25, Methyl (3R,5S)-4-(3-(4-(4-ethylpiperazin-1-yl)-3-methylphenyl)-1H-pyrazolo[4,3-d]pyrimidin-5-yl)-3,5-dimethylpiperazine-1-carboxylate] | – | IC50 (ALK2 (aa 147-end); [2]): < 100 nM |
| < 100 nM | 500 to 2000 nM | 100 to 500 nM | – | 100 to 500 nM | CC(C)C(=O)N1C[C@@H](C)N(c2ncc3[nH]nc(-c4ccc(N5CCN[C@H](C)C5)nc4)c3n2)[C@@H](C)C1 [Example 5, 1-((3R,5S)-3,5-Dimethyl-4-(3-(6-((R)-3-methylpiperazin-1-yl)pyridin-3-yl)-1H-pyrazolo[4,3-d]pyrimidin-5-yl)piperazin-1-yl)-2-methylpropan-1-one] | > 2000 nM | IC50 (FGFR3 (UP); [4]): > 2000 nM; IC50 (FGFR1 (UP); [5]): > 2000 nM |
| < 100 nM | 100 to 500 nM | 100 to 500 nM | 500 to 2000 nM | 100 to 500 nM | CC(C)NC(=O)N1C[C@@H](C)N(c2ncc3[nH]nc(-c4ccc(N5CCN[C@H](C)C5)nc4)c3n2)[C@@H](C)C1 [Example 7, (3R,5S)—N-isopropyl-3,5-dimethyl-4-(3-(6-((R)-3-methylpiperazin-1-yl)pyridin-3-yl)-1H-pyrazolo[4,3-d]pyrimidin-5-yl)piperazine-1-carboxamide] | – | IC50 (FGFR3 (UP)): 500 to 2000 nM; IC50 (FGFR1 (UP)): 500 to 2000 nM |
| < 100 nM | < 100 nM | – | – | – | COC(=O)N1C[C@@H](C)N(c2ncc3[nH]nc(-c4ccc(N5CCN(C)CC5)cc4)c3n2)[C@@H](C)C1 [Example 22, Methyl (3R,5S)-3,5-dimethyl-4-(3-(4-(4-methylpiperazin-1-yl)phenyl)-1H-pyrazolo[4,3-d]pyrimidin-5-yl)piperazine-1-carboxylate] | – | IC50 (ALK2 (aa 147-end); [2]): < 100 nM; IC50 (ALK2 (aa 147-end); [3]): < 100 nM |
| < 100 nM | 100 to 500 nM | 100 to 500 nM | – | – | COC(=O)N1C[C@@H](C)N(c2ncc3[nH]nc(-c4ccc(N5CCN6C[C@@H](O)C[C@@H]6C5)cc4)c3n2)[C@@H](C)C1 [Example 35, Methyl (3R,5S)-4-(3-(4-((7S,8aR)-7-hydroxyhexahydropyrrolo[1,2-a]pyrazin-2(1H)-yl)phenyl)-1H-pyrazolo[4,3-d]pyrimidin-5-yl)-3,5-dimethylpiperazine-1-carboxylate] | – | – |
| < 100 nM | 100 to 500 nM | 100 to 500 nM | – | – | COC(=O)N1C[C@@H](C)N(c2ncc3[nH]nc(-c4ccc(C5CCN(C)C5)cc4)c3n2)[C@@H](C)C1 (stereo partly drawn) [Example 27, Methyl (3R,5S)-3,5-dimethyl-4-(3-(4-(1-methylpyrrolidin-3-yl)phenyl)-1H-pyrazolo[4,3-d]pyrimidin-5-yl)piperazine-1-carboxylate] | – | – |

The next lines start with the compound.

| Structure (SMILES) | IC50 (ALK2 (aa 147-end); [1]) | IC50 (ALK2) | IC50 (ALK2 (aa 147-end); ALK2 1 mM IC50, 1 mM ATP) | IC50 (FGFR2 (P); FGFR2 (P) IC50 (nM)) | IC50 (ALK2 (aa 147-end); ALK2 100 μM IC50, 100 uM ATP) | IC50 (FGFR2 (P); read-out: FGFR2 (P) IC50) | further results |
| --- | --- | --- | --- | --- | --- | --- | --- |
| C[C@@H]1CN(c2ccc(-c3n[nH]c4cnc(N5[C@H](C)CCC[C@@H]5C)nc34)cn2)CCN1 [Example 1, 5-((2R,6S)-2,6-Dimethylpiperidin-1-yl)-3-(6-((R)-3-methylpiperazin-1-yl)pyridin-3-yl)-1H-pyrazolo[4,3-d]pyrimidine] | < 100 nM | 100 to 500 nM | – | – | – | < 100 nM | IC50 (ALK2 (aa 147-end); [2]): < 100 nM; IC50 (ALK2 (aa 147-end); [3]): < 100 nM; IC50 (FGFR3 (UP); [4]): < 100 nM; IC50 (FGFR1 (UP)): 100 to 500 nM |
| C[C@@H]1CN(c2ccc(-c3n[nH]c4cnc(N5CCc6c(ncn6C)C5)nc34)cn2)CCN1 [Example 18, (R)-5-(1-Methyl-1,4,6,7-tetrahydro-5H-imidazo[4,5-c]pyridin-5-yl)-3-(6-(3-methylpiperazin-1-yl)pyridin-3-yl)-1H-pyrazolo[4,3-d]pyrimidine] | < 100 nM | 100 to 500 nM | 100 to 500 nM | 100 to 500 nM | – | – | IC50 (ALK2 (aa 147-end); [2]): < 100 nM; IC50 (FGFR3 (UP)): 100 to 500 nM; IC50 (FGFR1 (UP)): 100 to 500 nM |
| COCCN1CCN(c2ncc3[nH]nc(-c4cnn(C)c4)c3n2)C(C)C1=O (centres unmarked) [Example 48, 1-(2-Methoxyethyl)-3-methyl-4-(3-(1-methyl-1H-pyrazol-4-yl)-1H-pyrazolo[4,3-d]pyrimidin-5-yl)piperazin-2-one] | – | – | – | 500 to 2000 nM | – | – | IC50 (FGFR3 (UP)): 100 to 500 nM; IC50 (FGFR1 (UP); [5]): > 2000 nM |
| CN1CC2CCC(C1=O)N2c1ncc2[nH]nc(-c3cnn([C@H]4CC[C@H](O)CC4)c3)c2n1 (stereo partly drawn) [Example 55, 8-(3-(1-((1r,4S)-4-Hydroxycyclohexyl)-1H-pyrazol-4-yl)-1H-pyrazolo[4,3-d]pyrimidin-5-yl)-3-methyl-3,8-diazabicyclo[3.2.1]octan-2-one] | – | – | – | – | – | < 100 nM | – |
| C[C@@H]1CN(c2ccc(-c3n[nH]c4cnc(N5[C@H](C)COC[C@@H]5C)nc34)cn2)CCN1 [Example 2, (3R,5S)-3,5-Dimethyl-4-(3-(6-((R)-3-methylpiperazin-1-yl)pyridin-3-yl)-1H-pyrazolo[4,3-d]pyrimidin-5-yl)morpholine] | < 100 nM | 100 to 500 nM | 500 to 2000 nM | 100 to 500 nM | 100 to 500 nM | – | IC50 (FGFR3 (UP); [4]): < 100 nM; IC50 (FGFR1 (UP)): 100 to 500 nM |
| CN1CCN(c2ncc3[nH]nc(-c4cnn(C)c4)c3n2)CC1=O [Example 36, 1-Methyl-4-(3-(1-methyl-1H-pyrazol-4-yl)-1H-pyrazolo[4,3-d]pyrimidin-5-yl)piperazin-2-one] | – | – | – | 100 to 500 nM | 500 to 2000 nM | – | IC50 (ALK2 (aa 147-end); ALK2 3 μM IC50, 3 uM ATP): 500 to 2000 nM |
| CN1CC2CCC(C1=O)N2c1ncc2[nH]nc(-c3cnn(C4CCC4)c3)c2n1 (single isomer, unassigned) [Example 63, 8-(3-(1-Cyclobutyl-1H-pyrazol-4-yl)-1H-pyrazolo[4,3-d]pyrimidin-5-yl)-3-methyl-3,8-diazabicyclo[3.2.1]octan-2-one] | – | – | – | 500 to 2000 nM | – | – | – |
| COCCn1cc(-c2n[nH]c3cnc(N4C5CCC4C(=O)N(C)C5)nc23)cn1 (centres unmarked) [Example 53, 8-(3-(1-(2-Methoxyethyl)-1H-pyrazol-4-yl)-1H-pyrazolo[4,3-d]pyrimidin-5-yl)-3-methyl-3,8-diazabicyclo[3.2.1]octan-2-one] | – | – | – | – | – | < 100 nM | – |
| CC1c2nccn2CCN1c1ncc2[nH]nc(-c3cnn(C)c3)c2n1 (centres unmarked) [Example 43, 3-(1-Methyl-1H-pyrazol-4-yl)-5-(8-methyl-5,6-dihydroimidazo[1,2-a]pyrazin-7(8H)-yl)-1H-pyrazolo[4,3-d]pyrimidine] | – | – | – | 100 to 500 nM | – | – | IC50 (FGFR3 (UP)): 100 to 500 nM; IC50 (FGFR1 (UP)): 500 to 2000 nM |
| Cn1cc(-c2n[nH]c3cnc(N4CCN(C5CC5)C(=O)C4)nc23)cn1 [Example 37, 1-Cyclopropyl-4-(3-(1-methyl-1H-pyrazol-4-yl)-1H-pyrazolo[4,3-d]pyrimidin-5-yl)piperazin-2-one] | – | – | – | 500 to 2000 nM | – | – | IC50 (FGFR3 (UP)): 100 to 500 nM; IC50 (FGFR1 (UP); [5]): > 2000 nM |
| CN1CC2CCC(C1=O)N2c1ncc2[nH]nc(-c3cnn(CCN4CCOCC4)c3)c2n1 (centres unmarked) [Example 58, 3-Methyl-8-(3-(1-(2-morpholinoethyl)-1H-pyrazol-4-yl)-1H-pyrazolo[4,3-d]pyrimidin-5-yl)-3,8-diazabicyclo[3.2.1]octan-2-one] | – | – | – | – | 500 to 2000 nM | < 100 nM | IC50 (ALK2 (aa 147-end); ALK2 3 μM IC50, 3 uM ATP): 500 to 2000 nM |
| CN1CC2CCC(C1=O)N2c1ncc2[nH]nc(-c3cnn(C4CCOCC4)c3)c2n1 (centres unmarked) [Example 54, 3-Methyl-8-(3-(1-(tetrahydro-2H-pyran-4-yl)-1H-pyrazol-4-yl)-1H-pyrazolo[4,3-d]pyrimidin-5-yl)-3,8-diazabicyclo[3.2.1]octan-2-one] | – | – | – | – | – | < 100 nM | – |
| CC1C(=O)N(C)CCN1c1ncc2[nH]nc(-c3cnn(C)c3)c2n1 (centres unmarked) [Example 38, 1,3-Dimethyl-4-(3-(1-methyl-1H-pyrazol-4-yl)-1H-pyrazolo[4,3-d]pyrimidin-5-yl)piperazin-2-one] | – | – | – | – | 500 to 2000 nM | < 100 nM | IC50 (ALK2 (aa 147-end); ALK2 3 μM IC50, 3 uM ATP): 100 to 500 nM |

From US11111247B2, “Pyrazolopyrimidine compounds and uses thereof” (Incyte Corporation, priority 2018, dated 2021)
